Patent publication US12240862B2, “Inhibitors of peptidylarginine deiminases” (Gilead Sciences, Inc., priority 2020, dated 2025)

These compounds were tested against T1, human PAD4 (Homo sapiens, UniProt Q9UM07) (assay: In vitro PAD4 BAEE biochemical assay). Conditions: human PAD4, BAEE substrate; 5 nM PAD4, 2 mM calcium chloride, 3 mM BAEE; geometric mean of multiple experiments.
T1 construct: human PAD4 (NM_012387), A2P663, was PCR amplified; His-SUMO (N, cleaved yes); made in house; host or cells: E. coli BL21(DE3)
T1 sequence (Q9UM07 2-663): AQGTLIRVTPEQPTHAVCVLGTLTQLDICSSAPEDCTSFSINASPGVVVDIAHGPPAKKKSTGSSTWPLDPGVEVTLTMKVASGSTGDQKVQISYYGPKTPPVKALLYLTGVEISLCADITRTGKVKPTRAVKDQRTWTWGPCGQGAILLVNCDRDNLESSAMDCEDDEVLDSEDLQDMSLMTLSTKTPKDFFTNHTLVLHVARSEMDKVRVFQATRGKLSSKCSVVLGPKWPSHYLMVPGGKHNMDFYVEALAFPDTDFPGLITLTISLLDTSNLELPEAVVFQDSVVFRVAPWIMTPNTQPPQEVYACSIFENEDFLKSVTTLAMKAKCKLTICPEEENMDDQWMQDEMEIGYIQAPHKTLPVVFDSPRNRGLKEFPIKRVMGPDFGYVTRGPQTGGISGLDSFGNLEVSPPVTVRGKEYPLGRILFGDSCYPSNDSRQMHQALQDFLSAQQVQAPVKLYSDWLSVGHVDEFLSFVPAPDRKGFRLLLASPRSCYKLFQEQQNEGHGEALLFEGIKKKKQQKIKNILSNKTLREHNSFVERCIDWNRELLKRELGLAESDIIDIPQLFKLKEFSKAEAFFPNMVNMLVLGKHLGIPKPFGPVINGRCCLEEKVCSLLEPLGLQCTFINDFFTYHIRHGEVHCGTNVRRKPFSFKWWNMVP
Summary of the method: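 Tag-free recombinant hPAD4 (5 nM), 2 mM CaCl2, 3 mM BAEE, 50 mM MOPS pH 7.6, 2 mM DTT; 30 min compound preincubation, 2 h reaction, all 25 °C. EDTA quench; ammonia read via o-phthalaldehyde amine coupling, 1 h.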
`COc1cc(C(=O)N2[C@H]3CC[C@@H]2[C@H](N)C3)cc2nc(-c3cc4ccc([C@@H](C)NC(=O)N5CC(F)(F)C(F)(F)C5)nc4n3CC3CC3)c(C)n12` [Example 208, ~{N}-[(1~{R})-1-[2-[7-[(1~{R},2~{R},4~{S})-2-amino-7-azabicyclo[2.2.1]heptane-7-carbonyl]-5-methoxy-3-methylimidazo [1,2-a]pyridin-2-yl]-1-(cyclopropylmethyl)pyrrolo [2,3-b]pyridin-6-yl]ethyl]-3,3,4,4-tetrafluoropyrrolidine-1-carboxamide] gave an IC50 of 111 nM.
For `COc1cc(C(=O)N2[C@H]3CC[C@@H]2[C@H](N)C3)cc2nc(-c3cc4ccc(N(C)S(C)(=O)=O)nc4n3CC3CC3C)c(C)n12` (stereo partly shown) [Example 490, ~{N}-[2-[7-[(1~{R},2~{R}, 4~{S})-2-amino-7-azabicyclo[2.2.1]heptane-7-carbonyl]-5-methoxy-3-methylimidazo[1,2-a]pyridin-2-yl]-1-[(2-methylcyclopropyl)methyl]pyrrolo[2,3-b]pyridin-6-yl]-~{N}-methylmethanesulfonamide], the IC50 was 75.4 nM.
Compound `COc1cc(C(=O)N2[C@H]3CC[C@@H]2[C@H](N)C3)cc2nc(-c3cc4ccc(N5[C@@H](C)CCCS5(=O)=O)nc4n3CC3CC3)c(C)n12` [Example 462, ((1R,2R,4S)-2-amino-7-azabicyclo[2.2.1]heptan-7-yl)(2-(1-(cyclopropylmethyl)-6-((S)-3-methyl-1,1-dioxido-1,2-thiazinan-2-yl)-1H-pyrrolo[2,3-b]pyridin-2-yl)-5-methoxy-3-methylimidazo[1,2-a]pyridin-7-yl)methanone] has an IC50 of 39.7 nM.
`CCc1ccc2cc(-c3nc4cc(C(=O)N5[C@H]6CC[C@@H]5[C@H](N)C6)cc(OC)n4c3C)n(CCCO)c2n1` [Example 499, [(1~{R},2~{R},4~{S})-2-amino-7-azabicyclo [2.2.1]heptan-7-yl]-[2-[6-ethyl-1-(3-hydroxypropyl)pyrrolo[2,3-b]pyridin-2-yl]-5-methoxy-3-methylimidazo[1,2-a]pyridin-7-yl]methanone] showed an IC50 of 481 nM.
With `COc1cc(C(=O)N2CCC[C@@H](N)C2)cc2nc(-c3cc4ccc([C@@H](C)NCC(F)(F)F)nc4n3CC3CC3)c(C)n12` [Example 267, [(3~{R})-3-aminopiperidin-1-yl]-[2-[1-(cyclopropylmethyl)-6-[(1~{R})-1-(2,2,2-trifluoroethylamino)ethyl]pyrrolo[2,3-b]pyridin-2-yl]-5-methoxy-3-methylimidazo[1,2-a]pyridin-7-yl]methanone] the IC50 was 521 nM.
`COc1cc(C(=O)N2CCC[C@@H](N)C2)cc2nc(-c3cc4ccc(C(C)n5cc(N)cn5)nc4n3CC3CC3)c(C)n12` (stereo partly shown) [Example 547, [(3~{R})-3-aminopiperidin-1-yl]-[2-[6-[1-(4-aminopyrazol-1-yl)ethyl]-1-(cyclopropylmethyl)pyrrolo[2,3-b]pyridin-2-yl]-5-methoxy-3-methylimidazo[1,2-a]pyridin-7-yl]methanone] showed an IC50 of 715 nM.
With `COc1cc(C(=O)N2CCC[C@@H](N)C2)cc2nc(-c3cc4ccc(O[C@H](C)C(=O)N(C)C)nc4n3CC3CC3)c(C)n12` [Example 619, (2~{R})-2-[2-[7-[(3~{R})-3-aminopiperidine-1-carbonyl]-5-methoxy-3-methylimidazo [1,2-a]pyridin-2-yl]-1-(cyclopropylmethyl)pyrrolo [2,3-b]pyridin-6-yl]oxy-~{N},~{N}-dimethylpropanamide] the IC50 was 686 nM.
`COc1cc(C(=O)N2CCC[C@@H](N)C2)cc2nc(-c3cc4cc(F)c(Cl)cc4n3CC3CC3)c(C)n12` [Example 590, [(3~{R})-3-aminopiperidin-1-yl]-[2-[6-chloro-1-(cyclopropylmethyl)-5-fluoroindol-2-yl]-5-methoxy-3-methylimidazo[1,2-a]pyridin-7-yl]methanone] gave an IC50 of 9820 nM.
With `COc1cc(C(=O)N2[C@H]3CC[C@@H]2[C@H](N)C3)cc2nc(-c3cc4ccc([C@@H](C)NC(=O)C5CCOCC5)nc4n3CC3CC3)c(C3CC3)n12` [Example 98] the IC50 was 33.2 nM.
`COc1cc(C(=O)N2CCC[C@@H](N)CC2)cc2nc(-c3cc4ccc([C@@H](C)NC(=O)C56CC(F)(C5)C6)nc4n3CC3CC3)c(C)n12` [Example 38, ~{N}-[(1~{R})-1-[2-[7-[(4~{R})-4-aminoazepane-1-carbonyl]-5-methoxy-3-methylimidazo[1,2-a]pyridin-2-yl]-1-(cyclopropylmethyl)pyrrolo[2,3-b]pyridin-6-yl]ethyl]-3-fluorobicyclo[1.1.1] pentane-1-carboxamide] gave an IC50 of 30600 nM.
In the case of `COC(=O)N[C@H](C)c1ccc2cc(-c3nc4cc(C(=O)N5CCC[C@@H](N)C5)cc(OC)n4c3C)n(CC3CC3)c2n1` [Example 258], the IC50 is reported as 225 nM.
In the case of `CCc1ccc2cc(-c3nc4cc(C(=O)N5[C@H]6CC[C@@H]5[C@H](N)C6)cc(OC)n4c3C)n(CC(C)(F)F)c2n1` [Example 500, [(1~{R},2~{R},4~{S})-2-amino-7-azabicyclo [2.2.1]heptan-7-yl]-[2-[1-(2,2-difluoropropyl)-6-ethylpyrrolo[2,3-b]pyridin-2-yl]-5-methoxy-3-methylimidazo [1,2-a]pyridin-7-yl] methanone], the IC50 is reported as 160 nM.
For `COc1cc(C(=O)N2[C@H]3CC[C@@H]2[C@H](N)C3)cc2nc(-c3cc4ccc(N5CCNCCS5(=O)=O)nc4n3CC3CC3)c(C)n12` [Example 450, [(1~{R},2~{R},4~{S})-2-amino-7-azabicyclo [2.2.1]heptan-7-yl]-[2-[1-(cyclopropylmethyl)-6-(1,1-dioxo-1,2,5-thiadiazepan-2-yl)pyrrolo[2,3-b]pyridin-2-yl]-5-methoxy-3-methylimidazo[1,2-a]pyridin-7-yl]methanone], the IC50 was 21.6 nM.
`COc1cc(C(=O)N2CC[C@H]3CCCN[C@H]3C2)cc2nc(-c3cc4ccc([C@@H](C)NC(=O)C56CC(F)(C5)C6)nc4n3CC3CC3)c(C)n12` [Example 180, ~{N}-[(1~{R})-1-[2-[7-[(4~{a}~{R},8~{a}~{R})-2,3,4,4~{a},5,6,8,8~{a}-octahydro-1~{H}-1,7-naphthyridine-7-carbonyl]-5-methoxy-3-methylimidazo [1,2-a]pyridin-2-yl]-1-(cyclopropylmethyl)pyrrolo [2,3-b]pyridin-6-yl]ethyl]-3-fluorobicyclo[1.1.1]pentane-1-carboxamide] gave an IC50 of 494 nM.
With `CCOC1C[C@@H]2CN(C(=O)c3cc(OC)n4c(C)c(-c5cc6ccc(N(C(F)F)S(C)(=O)=O)nc6n5CC5CC5)nc4c3)[C@H]1[C@@H]2N` (stereo partly drawn) [Example 371, N-[2-[7-[(1S,4R,7R)-7-amino-6-ethoxy-2-azabicyclo[2.2.1]heptane-2-carbonyl]-5-methoxy-3-methyl-imidazo[1,2-a]pyridin-2-yl]-1-(cyclopropylmethyl)pyrrolo [2,3-b]pyridin-6-yl]-N-(difluoromethyl) methanesulfonamide] the IC50 was 10600 nM.
`CCc1ccc2cc(-c3nc4cc(C(=O)N5[C@H]6CC[C@@H]5[C@H](N)C6)cc(OC)n4c3C)n(CCO)c2n1` [Example 497, [(1~{R},2~{R},4~{S})-2-amino-7-azabicyclo [2.2.1]heptan-7-yl]-[2-[6-ethyl-1-(2-hydroxyethyl)pyrrolo[2,3-b]pyridin-2-yl]-5-methoxy-3-methylimidazo [1,2-a]pyridin-7-yl]methanone] gave an IC50 of 1230 nM.
